# Assay results reported in ChEMBL document CHEMBL4680157, “Design, synthesis and biological evaluation of novel TRβ selective agonists sustained by ADME-toxicity analysis” (Eur J Med Chem, 2020).
# Key:
# [1] = Toxicity in F344 rat assessed as increase in heart weight at 50 to 100 ug per 100 g body weight, ig administered daily for 3 days; settings: in vivo, po, 72 h, dose 50-100 µg, time 3 day
# [2] = Toxicity in F344 rat assessed as reduction in liver and body weight ratio at 50 to 100 ug per 100 g body weight, ig administered daily for 3 days; type: tissue-based; settings: in vivo, po, 72 h, dose 50-100 µg, time 3 day
# [3] = Toxicity in F344 rat assessed as effect on serum cholesterol level at 20 ug per 100 g of body weight, ig administered daily for 3 days (reference value: 67.2 +/- 2.5 mg/dl); settings: in vivo, po, 72 h, dose 20 µg, time 3 day
# [4] = Toxicity in F344 rat assessed as effect on serum AST/GOT level at 20 ug per 100 g of body weight, ig administered daily for 3 days (reference value: 153 +/- 11 U/L); settings: in vivo, po, 72 h, dose 20 µg, time 3 day
# [5] = Toxicity in F344 rat assessed as effect on serum bilirubin level at 20 ug per 100 g of body weight, ig administered daily for 3 days (reference value: 1.4 +/- 0.2 mg/dl); settings: in vivo, po, 72 h, dose 20 µg, time 3 day
# [6] = Toxicity in F344 rat assessed as effect on serum triglycerides level at 20 ug per 100 g of body weight, ig administered daily for 3 days (reference value: 86.8 +/- 10.4 mg/dl); settings: in vivo, po, 72 h, dose 20 µg, time 3 day
# [7] = Toxicity in F344 rat assessed as effect on serum ALT/GPT level at 20 ug per 100 g of body weight, ig administered daily for 3 days (reference value: 46 +/- 4 U/L); settings: in vivo, po, 72 h, dose 20 µg, time 3 day
# [8] = Toxicity in F344 rat assessed as effect on serum glucose level at 20 ug per 100 g of body weight, ig administered daily for 3 days (reference value: 151 +/- 13.5 mg/dl); settings: in vivo, po, 72 h, dose 20 µg, time 3 day
# [9] = Toxicity in F344 rat assessed as increase in heart and body weight ratio at 50 to 100 ug per 100 g body weight, ig administered daily for 3 days; settings: in vivo, po, 72 h, dose 50-100 µg, time 3 day
# Aurora B = Aurora B (Homo sapiens, UniProt Q96GD4); assay: Inhibition of Aurora B (unknown origin) at 10 uM relative to control
# [10] = Cytotoxicity against human U2OS cells assessed as cell growth inhibition at 10 uM after 24 hrs relative to control; type: cell-based
# CYP2C19 = CYP2C19 (Homo sapiens, UniProt P33261); assay: Inhibition of CYP2C19 (unknown origin) at 10 uM relative to control; type: ADME
# SIRT7 = target: T1, SIRT7 (Homo sapiens, UniProt Q9NRC8); assay: Inhibition of SIRT7 (unknown origin) at 10 uM relative to control
# T1 sequence (Q9NRC8 whole entry): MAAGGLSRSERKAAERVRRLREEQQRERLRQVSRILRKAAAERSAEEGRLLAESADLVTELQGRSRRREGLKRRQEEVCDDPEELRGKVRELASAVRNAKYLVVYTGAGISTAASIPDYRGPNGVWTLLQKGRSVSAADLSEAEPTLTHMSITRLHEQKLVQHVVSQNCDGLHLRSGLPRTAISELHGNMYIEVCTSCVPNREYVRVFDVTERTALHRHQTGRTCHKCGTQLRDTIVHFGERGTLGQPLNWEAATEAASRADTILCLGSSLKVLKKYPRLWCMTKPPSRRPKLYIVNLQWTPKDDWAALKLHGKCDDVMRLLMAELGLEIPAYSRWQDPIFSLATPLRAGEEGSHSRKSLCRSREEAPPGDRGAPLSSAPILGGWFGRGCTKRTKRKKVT
# [11] = Cytotoxicity against human HEK293 cells assessed as cell growth inhibition at 10 uM after 24 hrs relative to control; type: cell-based
# CYP2D6 = CYP2D6 (Homo sapiens, UniProt P10635); assay: Inhibition of CYP2D6 (unknown origin) at 10 uM relative to control; type: ADME
# [12] = Cytotoxicity against human HEK293 cells assessed as cell growth inhibition at 10 uM after 48 hrs relative to control; type: cell-based
# [13] = Cytotoxicity against human U2OS cells assessed as cell growth inhibition at 10 uM after 48 hrs relative to control; type: cell-based
# [14] = Cytotoxicity against human MCF7 cells assessed as cell growth inhibition at 10 uM after 24 hrs relative to control; type: cell-based
# HDAC9 = HDAC9 (Homo sapiens, UniProt Q9UKV0); assay: Inhibition of HDAC9 (unknown origin) at 10 uM relative to control
# CYP3A4 = CYP3A4 (Homo sapiens, UniProt P08684); assay: Inhibition of CYP3A4 (unknown origin) at 10 uM relative to control; type: ADME
# CYP1A2 = target: T2, CYP1A2 (Homo sapiens, UniProt P05177); assay: Inhibition of CYP1A2 (unknown origin) at 10 uM relative to control; type: ADME
# T2 sequence (P05177 whole entry): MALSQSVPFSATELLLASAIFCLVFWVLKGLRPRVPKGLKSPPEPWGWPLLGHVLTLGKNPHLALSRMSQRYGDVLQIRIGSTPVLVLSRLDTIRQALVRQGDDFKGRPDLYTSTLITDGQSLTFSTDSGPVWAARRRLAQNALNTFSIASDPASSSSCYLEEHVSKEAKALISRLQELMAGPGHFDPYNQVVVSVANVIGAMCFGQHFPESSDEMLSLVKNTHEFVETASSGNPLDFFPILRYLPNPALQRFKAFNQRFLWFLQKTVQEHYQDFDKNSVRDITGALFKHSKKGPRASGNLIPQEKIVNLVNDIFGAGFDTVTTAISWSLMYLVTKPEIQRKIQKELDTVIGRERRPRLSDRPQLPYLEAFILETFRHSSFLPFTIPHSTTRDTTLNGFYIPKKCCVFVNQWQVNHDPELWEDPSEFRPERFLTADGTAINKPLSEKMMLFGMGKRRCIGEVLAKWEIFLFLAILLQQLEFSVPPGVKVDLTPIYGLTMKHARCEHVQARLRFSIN
# CYP2C9 = CYP2C9 (Homo sapiens, UniProt P11712); assay: Inhibition of CYP2C9 (unknown origin) at 10 uM relative to control; type: ADME
# HDAC4 = HDAC4 (Homo sapiens, UniProt P56524); assay: Inhibition of HDAC4 (unknown origin) at 10 uM relative to control
# HDAC8 = target: T3, HDAC8 (Homo sapiens, UniProt Q9BY41); assay: Inhibition of HDAC8 (unknown origin) at 10 uM relative to control
# T3 sequence (Q9BY41 whole entry): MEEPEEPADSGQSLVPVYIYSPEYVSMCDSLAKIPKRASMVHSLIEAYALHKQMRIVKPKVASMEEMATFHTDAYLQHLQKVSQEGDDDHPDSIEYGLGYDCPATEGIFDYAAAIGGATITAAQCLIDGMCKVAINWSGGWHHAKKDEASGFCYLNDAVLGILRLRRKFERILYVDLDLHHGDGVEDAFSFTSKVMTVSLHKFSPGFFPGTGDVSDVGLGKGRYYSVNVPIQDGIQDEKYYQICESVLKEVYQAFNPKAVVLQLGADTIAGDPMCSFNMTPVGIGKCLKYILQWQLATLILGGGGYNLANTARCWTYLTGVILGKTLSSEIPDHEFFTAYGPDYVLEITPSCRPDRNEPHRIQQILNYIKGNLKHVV
# HDAC6 = target: T4, HDAC6 (Homo sapiens, UniProt Q9UBN7); assay: Inhibition of HDAC6 (unknown origin) at 10 uM relative to control
# T4 sequence (Q9UBN7 whole entry): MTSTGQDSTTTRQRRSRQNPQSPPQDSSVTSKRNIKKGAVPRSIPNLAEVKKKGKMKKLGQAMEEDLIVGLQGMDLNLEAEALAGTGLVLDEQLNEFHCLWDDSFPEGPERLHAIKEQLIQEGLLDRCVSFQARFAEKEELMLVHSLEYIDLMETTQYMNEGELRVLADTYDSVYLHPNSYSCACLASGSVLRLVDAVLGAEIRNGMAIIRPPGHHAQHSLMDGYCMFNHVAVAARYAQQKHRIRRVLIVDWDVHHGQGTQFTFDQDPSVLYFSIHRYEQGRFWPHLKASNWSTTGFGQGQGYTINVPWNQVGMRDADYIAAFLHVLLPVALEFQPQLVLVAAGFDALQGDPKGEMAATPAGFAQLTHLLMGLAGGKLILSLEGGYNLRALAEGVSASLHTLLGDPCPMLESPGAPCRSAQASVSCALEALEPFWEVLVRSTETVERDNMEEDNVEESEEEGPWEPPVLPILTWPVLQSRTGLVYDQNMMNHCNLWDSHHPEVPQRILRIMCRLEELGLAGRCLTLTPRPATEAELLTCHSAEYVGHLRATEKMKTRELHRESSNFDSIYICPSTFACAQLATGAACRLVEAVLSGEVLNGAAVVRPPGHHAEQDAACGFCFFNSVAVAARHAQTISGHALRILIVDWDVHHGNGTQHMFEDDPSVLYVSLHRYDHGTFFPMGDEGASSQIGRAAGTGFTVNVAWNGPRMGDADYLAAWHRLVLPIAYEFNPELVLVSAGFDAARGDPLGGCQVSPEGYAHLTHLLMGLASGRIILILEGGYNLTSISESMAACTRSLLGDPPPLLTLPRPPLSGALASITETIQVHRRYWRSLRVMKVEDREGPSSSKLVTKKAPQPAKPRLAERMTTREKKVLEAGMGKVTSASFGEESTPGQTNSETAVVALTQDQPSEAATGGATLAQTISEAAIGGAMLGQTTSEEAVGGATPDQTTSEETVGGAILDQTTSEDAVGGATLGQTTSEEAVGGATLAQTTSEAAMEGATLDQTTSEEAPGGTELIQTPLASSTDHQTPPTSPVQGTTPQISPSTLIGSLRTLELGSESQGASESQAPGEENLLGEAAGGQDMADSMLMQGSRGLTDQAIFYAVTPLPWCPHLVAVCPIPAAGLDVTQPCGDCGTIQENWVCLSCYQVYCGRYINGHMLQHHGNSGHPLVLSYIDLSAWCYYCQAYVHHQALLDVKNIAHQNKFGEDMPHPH
# [15] = target: 3',5'-cyclic-AMP phosphodiesterase 4C (Homo sapiens) (UniProt Q08493); assay: Inhibition of PDE4C1 (unknown origin) at 10 uM relative to control
# [16] = Cytotoxicity against human MCF7 cells assessed as cell growth inhibition at 10 uM after 48 hrs relative to control; type: cell-based
# [17] = Cytotoxicity against human hTERT cells assessed as cell growth inhibition at 10 uM after 24 hrs relative to control; type: cell-based, hTERT-BJ
# [18] = Cytotoxicity against human hTERT cells assessed as cell growth inhibition at 10 uM after 48 hrs relative to control; type: cell-based, hTERT-BJ
# hERG (KCNH2) = hERG (KCNH2) (Homo sapiens, UniProt Q12809); assay: Inhibition of human ERG at 10 uM by fluorescence polarization assay relative to control
# Sequence of hERG (KCNH2) (Q12809 whole entry): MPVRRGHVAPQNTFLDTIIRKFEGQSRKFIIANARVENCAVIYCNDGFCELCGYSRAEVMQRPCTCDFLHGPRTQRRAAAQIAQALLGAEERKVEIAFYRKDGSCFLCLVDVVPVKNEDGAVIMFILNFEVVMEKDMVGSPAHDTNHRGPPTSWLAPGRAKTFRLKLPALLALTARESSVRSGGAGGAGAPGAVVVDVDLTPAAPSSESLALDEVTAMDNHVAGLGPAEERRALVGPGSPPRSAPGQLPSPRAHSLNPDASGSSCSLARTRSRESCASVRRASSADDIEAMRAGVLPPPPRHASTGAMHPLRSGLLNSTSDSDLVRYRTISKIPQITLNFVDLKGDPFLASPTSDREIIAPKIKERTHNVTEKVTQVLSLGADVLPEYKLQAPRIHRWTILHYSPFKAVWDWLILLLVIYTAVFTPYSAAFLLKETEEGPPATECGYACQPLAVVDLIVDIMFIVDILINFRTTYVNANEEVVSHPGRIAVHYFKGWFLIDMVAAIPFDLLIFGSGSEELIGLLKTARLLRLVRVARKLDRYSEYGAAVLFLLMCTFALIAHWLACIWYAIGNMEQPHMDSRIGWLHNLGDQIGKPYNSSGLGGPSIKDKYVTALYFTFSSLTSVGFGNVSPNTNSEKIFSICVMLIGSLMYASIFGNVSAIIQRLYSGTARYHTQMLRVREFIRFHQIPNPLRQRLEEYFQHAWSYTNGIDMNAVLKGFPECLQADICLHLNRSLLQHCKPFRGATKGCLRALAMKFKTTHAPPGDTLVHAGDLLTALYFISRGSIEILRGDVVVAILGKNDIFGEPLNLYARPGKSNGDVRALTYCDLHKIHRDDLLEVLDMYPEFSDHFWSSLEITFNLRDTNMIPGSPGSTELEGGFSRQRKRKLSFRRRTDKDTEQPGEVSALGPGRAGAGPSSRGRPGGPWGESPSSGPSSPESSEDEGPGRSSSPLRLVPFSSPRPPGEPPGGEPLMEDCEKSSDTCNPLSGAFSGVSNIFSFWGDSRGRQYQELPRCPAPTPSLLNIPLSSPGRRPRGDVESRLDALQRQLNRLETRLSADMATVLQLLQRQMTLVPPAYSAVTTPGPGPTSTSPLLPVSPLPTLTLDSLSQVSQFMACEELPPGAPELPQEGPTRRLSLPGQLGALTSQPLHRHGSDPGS
# Sequence of Aurora B (Q96GD4 whole entry): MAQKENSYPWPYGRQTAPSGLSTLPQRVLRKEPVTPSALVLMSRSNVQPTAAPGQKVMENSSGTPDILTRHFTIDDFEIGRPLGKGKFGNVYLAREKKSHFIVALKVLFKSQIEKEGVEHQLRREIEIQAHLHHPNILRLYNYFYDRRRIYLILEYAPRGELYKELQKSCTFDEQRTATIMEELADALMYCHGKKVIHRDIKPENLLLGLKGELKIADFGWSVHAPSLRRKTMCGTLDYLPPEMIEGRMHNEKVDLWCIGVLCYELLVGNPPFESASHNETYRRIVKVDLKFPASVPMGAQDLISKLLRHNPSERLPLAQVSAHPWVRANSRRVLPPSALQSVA
# Sequence of CYP2C19 (P33261 whole entry): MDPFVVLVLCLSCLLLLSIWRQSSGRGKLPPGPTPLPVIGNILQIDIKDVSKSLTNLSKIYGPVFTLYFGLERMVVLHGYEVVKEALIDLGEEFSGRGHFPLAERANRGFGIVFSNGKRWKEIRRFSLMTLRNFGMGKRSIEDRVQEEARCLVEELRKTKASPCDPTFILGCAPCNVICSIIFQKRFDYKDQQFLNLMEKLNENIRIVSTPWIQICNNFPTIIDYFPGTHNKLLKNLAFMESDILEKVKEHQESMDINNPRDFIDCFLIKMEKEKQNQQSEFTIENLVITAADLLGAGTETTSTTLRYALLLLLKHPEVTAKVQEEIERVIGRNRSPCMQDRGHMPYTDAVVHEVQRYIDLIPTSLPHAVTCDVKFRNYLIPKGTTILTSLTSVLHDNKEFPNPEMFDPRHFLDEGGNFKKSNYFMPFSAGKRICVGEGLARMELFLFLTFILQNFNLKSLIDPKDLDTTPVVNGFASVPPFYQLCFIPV
# Sequence of HDAC9 (Q9UKV0 whole entry): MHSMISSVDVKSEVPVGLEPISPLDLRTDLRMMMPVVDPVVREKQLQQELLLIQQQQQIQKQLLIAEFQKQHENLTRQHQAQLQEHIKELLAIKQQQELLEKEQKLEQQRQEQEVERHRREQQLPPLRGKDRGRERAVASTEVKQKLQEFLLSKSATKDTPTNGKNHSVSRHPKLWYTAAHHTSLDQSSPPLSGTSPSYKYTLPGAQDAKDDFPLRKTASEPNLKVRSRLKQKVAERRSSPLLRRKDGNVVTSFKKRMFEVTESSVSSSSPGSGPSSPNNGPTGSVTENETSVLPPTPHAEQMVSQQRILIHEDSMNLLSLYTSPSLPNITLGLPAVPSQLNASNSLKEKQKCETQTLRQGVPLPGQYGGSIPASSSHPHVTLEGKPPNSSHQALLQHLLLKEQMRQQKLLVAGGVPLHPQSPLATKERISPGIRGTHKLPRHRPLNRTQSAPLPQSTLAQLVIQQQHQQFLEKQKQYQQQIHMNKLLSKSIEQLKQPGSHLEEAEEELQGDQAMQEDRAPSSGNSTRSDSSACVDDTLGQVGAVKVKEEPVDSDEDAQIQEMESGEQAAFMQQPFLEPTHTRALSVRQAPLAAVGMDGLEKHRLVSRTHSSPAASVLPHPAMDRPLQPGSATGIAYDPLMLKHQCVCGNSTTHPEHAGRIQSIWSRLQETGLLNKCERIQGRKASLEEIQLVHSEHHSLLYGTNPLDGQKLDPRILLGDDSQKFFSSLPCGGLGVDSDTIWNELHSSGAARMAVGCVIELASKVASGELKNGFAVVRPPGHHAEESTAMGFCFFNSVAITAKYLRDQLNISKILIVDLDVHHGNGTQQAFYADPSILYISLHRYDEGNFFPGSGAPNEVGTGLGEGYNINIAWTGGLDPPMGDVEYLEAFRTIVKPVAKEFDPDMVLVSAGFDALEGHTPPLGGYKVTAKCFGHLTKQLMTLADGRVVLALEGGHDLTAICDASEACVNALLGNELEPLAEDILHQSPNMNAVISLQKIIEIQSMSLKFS
# Sequence of CYP2D6 (P10635 whole entry): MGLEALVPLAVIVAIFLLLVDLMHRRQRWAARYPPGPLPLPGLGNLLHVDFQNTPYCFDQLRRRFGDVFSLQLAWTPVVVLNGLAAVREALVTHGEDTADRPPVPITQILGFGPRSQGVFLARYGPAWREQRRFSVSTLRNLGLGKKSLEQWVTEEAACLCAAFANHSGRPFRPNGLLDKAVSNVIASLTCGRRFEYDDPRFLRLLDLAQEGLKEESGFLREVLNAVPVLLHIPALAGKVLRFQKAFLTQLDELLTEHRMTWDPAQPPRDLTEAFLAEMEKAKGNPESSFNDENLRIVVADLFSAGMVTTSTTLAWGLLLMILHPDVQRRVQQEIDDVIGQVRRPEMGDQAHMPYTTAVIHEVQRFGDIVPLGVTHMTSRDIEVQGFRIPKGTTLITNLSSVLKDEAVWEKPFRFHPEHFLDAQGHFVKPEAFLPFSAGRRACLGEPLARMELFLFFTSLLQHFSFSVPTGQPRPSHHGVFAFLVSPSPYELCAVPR
# Sequence of 3',5'-cyclic-AMP phosphodiesterase 4C (Homo sapiens) (Q08493 whole entry): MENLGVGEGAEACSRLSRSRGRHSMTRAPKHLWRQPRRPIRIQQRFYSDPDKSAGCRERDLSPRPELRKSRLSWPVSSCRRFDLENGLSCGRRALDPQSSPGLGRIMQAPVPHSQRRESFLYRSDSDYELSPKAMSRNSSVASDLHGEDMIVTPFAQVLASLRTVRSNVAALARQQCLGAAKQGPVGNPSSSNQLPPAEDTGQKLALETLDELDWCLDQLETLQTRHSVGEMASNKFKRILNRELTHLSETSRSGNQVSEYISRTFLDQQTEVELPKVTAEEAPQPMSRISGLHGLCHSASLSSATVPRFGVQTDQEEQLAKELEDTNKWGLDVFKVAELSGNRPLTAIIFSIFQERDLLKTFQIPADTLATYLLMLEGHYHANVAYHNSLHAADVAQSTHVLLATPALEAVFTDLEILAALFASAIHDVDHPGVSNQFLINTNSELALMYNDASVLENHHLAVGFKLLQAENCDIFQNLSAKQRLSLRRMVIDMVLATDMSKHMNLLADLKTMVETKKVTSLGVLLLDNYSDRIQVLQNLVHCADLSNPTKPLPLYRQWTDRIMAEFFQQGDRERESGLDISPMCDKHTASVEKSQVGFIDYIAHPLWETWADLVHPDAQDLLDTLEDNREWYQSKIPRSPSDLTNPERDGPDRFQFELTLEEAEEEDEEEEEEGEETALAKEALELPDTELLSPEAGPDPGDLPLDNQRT
# Sequence of CYP3A4 (P08684 whole entry): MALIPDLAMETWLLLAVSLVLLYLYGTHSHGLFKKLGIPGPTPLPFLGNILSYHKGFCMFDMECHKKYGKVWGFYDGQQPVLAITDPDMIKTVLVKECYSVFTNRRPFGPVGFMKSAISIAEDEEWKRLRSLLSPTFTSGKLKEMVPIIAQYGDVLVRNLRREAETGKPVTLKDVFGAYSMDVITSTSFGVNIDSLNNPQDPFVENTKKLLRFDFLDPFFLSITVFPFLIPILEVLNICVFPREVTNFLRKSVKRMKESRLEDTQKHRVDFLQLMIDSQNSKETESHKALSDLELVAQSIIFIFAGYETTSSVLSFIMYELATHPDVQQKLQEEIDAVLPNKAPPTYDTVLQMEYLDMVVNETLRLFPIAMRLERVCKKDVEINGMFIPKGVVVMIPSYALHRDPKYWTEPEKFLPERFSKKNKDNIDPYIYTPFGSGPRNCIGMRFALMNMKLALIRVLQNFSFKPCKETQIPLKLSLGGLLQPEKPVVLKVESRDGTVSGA
inhibition at 10 µM (Aurora B),inhibition at 10 µM (CYP2C19),inhibition at 10 µM (SIRT7),inhibition at 10 µM (CYP2D6),inhibition at 10 µM (HDAC9),inhibition at 10 µM (CYP3A4),inhibition at 10 µM (CYP1A2),inhibition at 10 µM (CYP2C9),inhibition at 10 µM (HDAC4),inhibition at 10 µM (HDAC8),inhibition at 10 µM (HDAC6),inhibition [15],Structure (SMILES),"inhibition at 24 h, 10 µM [10]","inhibition at 24 h, 10 µM [11]","inhibition at 48 h, 10 µM [12]","inhibition at 48 h, 10 µM [13]","inhibition at 24 h, 10 µM [14]","inhibition at 48 h, 10 µM [16]","inhibition at 24 h, 10 µM [17]","inhibition at 48 h, 10 µM [18]",other results
–,–,–,–,–,–,–,–,–,–,–,–,N[C@@H](Cc1cc(I)c(Oc2ccc(O)c(I)c2)c(I)c1)C(=O)O [LIOTHYRONINE],–,–,–,–,–,–,–,–,Activity [1]: Toxic; Activity [2]: Toxic; Activity [3]: 65.2 mg/dL; Activity [4]: 159 U/L; Activity [5]: 1.4 mg/dL; Activity [6]: 90.2 mg/dL; Activity [7]: 53 U/L; Activity [8]: 139 mg/dL; Activity [9]: Toxic
< 50%,< 50%,< 50%,< 50%,< 50%,< 50%,< 50%,< 50%,< 50%,< 50%,< 50%,< 50%,CC(=O)Nc1ccc(Cc2ccc(OCC(=O)O)cc2)cc1C(C)C,< 50%,< 50%,< 50%,< 50%,< 50%,< 50%,< 50%,< 50%,inhibition at 10 µM (hERG (KCNH2)): < 40%
< 50%,< 50%,< 50%,< 50%,< 50%,< 50%,< 50%,< 50%,< 50%,< 50%,< 50%,< 50%,Cc1cc(OCC(=O)O)cc(C)c1Cc1ccc(N)cc1,< 50%,< 50%,< 50%,< 50%,< 50%,< 50%,< 50%,< 50%,inhibition at 10 µM (hERG (KCNH2)): < 25%
